Reference: patent US20110313156A1 (BOEHRINGER INGELHEIM INTERNATIONAL GMBH, priority 2008, published 2011)

target: T1, His6-PDK1 (aa 52-556) (Homo sapiens, UniProt O15530); assay: PDK1 kinase assay III (with Tween 20); assay type: biochemical; conditions: compound at 10 μM; PDK1 kinase assay III (values without asterisk); read-out: % CTL (residual activity of the enzyme relative to DMSO control)
T1 construct: 15 μL His6-PDK1 (aa 52-556) 3.33 ng/well); host or cells: baculovirus-infected insect cells
T1 sequence (O15530 52-556): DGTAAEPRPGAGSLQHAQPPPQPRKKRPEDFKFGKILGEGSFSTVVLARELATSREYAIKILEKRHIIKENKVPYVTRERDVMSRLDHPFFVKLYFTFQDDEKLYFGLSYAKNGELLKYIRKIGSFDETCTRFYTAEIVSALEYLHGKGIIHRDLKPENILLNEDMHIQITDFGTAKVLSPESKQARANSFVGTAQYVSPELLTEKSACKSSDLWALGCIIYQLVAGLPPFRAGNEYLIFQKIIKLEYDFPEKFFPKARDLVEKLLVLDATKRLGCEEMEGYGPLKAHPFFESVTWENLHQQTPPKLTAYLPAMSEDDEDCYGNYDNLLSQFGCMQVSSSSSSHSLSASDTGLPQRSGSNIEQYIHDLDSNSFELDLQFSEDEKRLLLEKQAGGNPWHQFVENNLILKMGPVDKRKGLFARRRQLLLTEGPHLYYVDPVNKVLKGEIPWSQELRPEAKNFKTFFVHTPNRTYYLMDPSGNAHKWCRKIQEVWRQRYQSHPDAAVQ
Outline: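 Started with ATP, incubated 90 min at ambient temperature, then stopped with phosphoric acid. Asterisked values come from assay II (24 h or 5 min incubation).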

SMILES | remaining activity at 10 µM [%]
CN(C)Cc1ccc(Nc2ncc3cc(C#CCNC(=O)c4nccn(Cc5ccc(F)c(F)c5)c4=O)ccc3n2)cc1 [III-17, 4-(3,4-difluorobenzyl)-N-{3-[2-({4-[(dimethylamino)methyl]phenyl}amino)quinazolin-6-yl]prop-2-yn-1-yl}-3-oxo-3,4-dihydropyrazine-2-carboxamide] | 13.7
Cc1c(C(=O)NCC#Cc2ccc3nc(Nc4ccc(CN(C)C)cc4)ncc3c2)c(=O)n(Cc2ccccc2)n1C [III-18, 2-benzyl-N-{3-[2-({4-[(dimethylamino)methyl]phenyl}amino)quinazolin-6-yl]prop-2-yn-1-yl}-1,5-dimethyl-3-oxo-2,3-dihydro-1H-pyrazole-4-carboxamide] | 14.7
O=C(NC/C=C/c1cc(OC2CCNCC2)c2nc(Nc3ccccc3)ncc2c1)c1cncn(Cc2ccc(F)c(F)c2)c1=O [III-19, 1-(3,4-difluorobenzyl)-6-oxo-N-{(2E)-3-[2-(phenylamino)-8-(piperidin-4-yloxy)quinazolin-6-yl]prop-2-en-1-yl}-1,6-dihydropyrimidine-5-carboxamide] | 17.5
Cc1c(C(=O)NCC#Cc2ccc3nc(Nc4ccc(CN(C)C)cc4)ncc3c2)c(=O)n(Cc2ccc(F)c(F)c2)n1C [III-20, 2-(3,4-difluorobenzyl)-N-{3-[2-({4-[(dimethylamino)methyl]phenyl}amino)-quinazolin-6-yl]prop-2-yn-1-yl}-1,5-dimethyl-3-oxo-2,3-dihydro-1H-pyrazole-4-carboxamide] | 13.7
Cn1c(=O)c(C#CCNC(=O)c2cncn(Cc3ccc(F)c(F)c3)c2=O)cc2cnc(Nc3ccccc3)nc21 [III-22, 1-(3,4-difluorobenzyl)-N-{3-[8-methyl-7-oxo-2-(phenylamino)-7,8-dihydropyrido-[2,3-d]pyrimidin-6-yl]prop-2-yn-1-yl}-6-oxo-1,6-dihydropyrimidine-5-carboxamide] | 24.9
CN(C)Cc1ccc(Nc2ncc3c(F)c(C#CCNC(=O)c4cncn(Cc5ccc(F)c(F)c5)c4=O)ccc3n2)cc1 [III-24, 1-(3,4-difluorobenzyl)-N-{3-[2-({4-[(dimethylamino)methyl]phenyl}amino)-5-fluoroquinazolin-6-yl]prop-2-yn-1-yl}-6-oxo-1,6-dihydropyrimidine-5-carboxamide] | 8.9
Cc1c(C(=O)NCC#Cc2ccc3nc(Nc4ccc(CN(C)C)cc4)ncc3c2F)c(=O)n(Cc2ccc(F)c(F)c2)n1C [III-25, 2-(3,4-difluorobenzyl)-N-{3-[2-({4-[(dimethylamino)methyl]phenyl}amino)-5-fluoroquinazolin-6-yl]prop-2-yn-1-yl}-1,5-dimethyl-3-oxo-2,3-dihydro-1H-pyrazole-4-carboxamide] | 11.7
CN1CCC(N(C)c2ccc(Nc3ncc4c(F)c(C#CCNC(=O)c5cncn(Cc6ccc(F)c(F)c6)c5=O)ccc4n3)cc2)CC1 [III-26, 1-(3,4-difluorobenzyl)-N-{3-[5-fluoro-2-({4-[methyl(1-methylpiperidin-4-yl)amino]phenyl}amino)quinazolin-6-yl]prop-2-yn-1-yl}-6-oxo-1,6-dihydropyrimidine-5-carboxamide] | 12.4
Cc1c(C(=O)NCC#Cc2ccc3nc(Nc4ccc(N(C)C5CCN(C)CC5)cc4)ncc3c2F)c(=O)n(Cc2ccc(F)c(F)c2)n1C [III-27, 2-(3,4-difluorobenzyl)-N-{3-[5-fluoro-2-({4-[methyl(1-methylpiperidin-4-yl)amino]phenyl}amino)quinazolin-6-yl]prop-2-yn-1-yl}-1,5-dimethyl-3-oxo-2,3-dihydro-1H-pyrazole-4-carboxamide] | 12.8
Cc1c(C#CCNC(=O)c2cncn(Cc3ccc(F)c(F)c3)c2=O)c(=O)n(C(C)C)c2nc(Nc3ccc(N4CCOCC4)cc3)ncc12 [III-29, 1-(3,4-difluorobenzyl)-N-{3-[5-methyl-2-{[4-(morpholin-4-yl)phenyl]amino}-7-oxo-8-(propane-2-yl)-7,8-dihydropyrido[2,3-d]pyrimidin-6-yl]prop-2-yn-1-yl}-6-oxo-1,6-dihydropyrimidine-5-carboxamide] | 16.4

The next lines start with the values.

remaining activity at 10 µM [%] | SMILES
11.4 | CN1CCC(N(C)c2ccc(Nc3ncc4cc(C#CCNC(=O)c5cncn(Cc6ccc(F)c(F)c6)c5=O)ccc4n3)cc2)CC1 [III-30, 1-(3,4-difluorobenzyl)-N-{3-[2-({4-[methyl(1-methylpiperidin-4-yl)amino]phenyl}amino)quinazolin-6-yl]prop-2-yn-1-yl}-6-oxo-1,6-dihydropyrimidine-5-carboxamide]
13.1 | Cc1c(C(=O)NCC#Cc2ccc3nc(Nc4ccc(NC5CCN(C)CC5)c(F)c4)ncc3c2)c(=O)n(Cc2ccc(F)c(F)c2)n1C [III-32, 2-(3,4-difluorobenzyl)-N-{3-[2-({3-fluoro-4-[(1-methylpiperidin-4-yl)amino]phenyl}amino)quinazolin-6-yl]prop-2-yn-1-yl}-1,5-dimethyl-3-oxo-2,3-dihydro-1H-pyrazole-4-carboxamide]
22.8 | CN1CCC(Nc2ccc(Nc3ncc4cc(C#CCNC(=O)c5cn(C)c(=O)n(Cc6ccc(F)c(F)c6)c5=O)ccc4n3)cc2F)CC1 [III-33, 3-(3,4-difluorobenzyl)-N-{3-[2-({3-fluoro-4-[(1-methylpiperidin-4-yl)amino]phenyl}amino)quinazolin-6-yl]prop-2-yn-1-yl}-1-methyl-2,4-dioxo-1,2,3,4-tetrahydropyrimidine-5-carboxamide]
10.7 | CN1CCC(N(C)c2ccc(Nc3ncc4cc(C#CCNC(=O)c5nccn(Cc6ccc(F)c(F)c6)c5=O)ccc4n3)cc2)CC1 [III-34, 4-(3,4-difluorobenzyl)-N-{3-[2-({4-[methyl(1-methylpiperidin-4-yl)amino]phenyl}amino)quinazolin-6-yl]prop-2-yn-1-yl}-3-oxo-3,4-dihydropyrazine-2-carboxamide]
14.9 | CN1CCC(Nc2ccc(Nc3ncc4cc(C#CCNC(=O)c5nccn(Cc6ccc(F)c(F)c6)c5=O)ccc4n3)cc2F)CC1 [III-35, 4-(3,4-difluorobenzyl)-N-{3-[2-({3-fluoro-4-[(1-methylpiperidin-4-yl)amino]-phenyl}amino)quinazolin-6-yl]prop-2-yn-1-yl}-3-oxo-3,4-dihydropyrazine-2-carboxamide]
13.2 | CN1CCC(N(C)c2ccc(Nc3ncc4cc(C#CCNC(=O)c5ccnn(Cc6ccc(F)c(F)c6)c5=O)ccc4n3)cc2)CC1 [III-36, 2-(3,4-difluorobenzyl)-N-{3-[2-({4-[methyl(1-methylpiperidin-4-yl)amino]phenyl}amino)quinazolin-6-yl]prop-2-yn-1-yl}-3-oxo-2,3-dihydropyridazine-4-carboxamide]
13.8 | CN(C)Cc1ccc(Nc2ncc3cc(C#CCNC(=O)c4cc(Cl)nn(Cc5ccc(F)c(F)c5)c4=O)ccc3n2)cc1 [III-37, 6-chloro-2(3,4-difluorobenzyl)-N-{3-[2-({4-[(dimethylamino)methyl]phenyl}-amino)quinazolin-6-yl]prop-2-yn-1-yl}-3-oxo-2,3-dihydropyridazine-4-carboxamide]
13.2 | CN1CCC(Nc2ccc(Nc3ncc4cc(C#CCNC(=O)c5cc(Cl)nn(Cc6ccc(F)c(F)c6)c5=O)ccc4n3)cc2F)CC1 [III-38, 6-chloro-2(3,4-difluorobenzyl)-N-{3-[2-({3-fluoro-4-[(1-methylpiperidin-4-yl)-amino]phenyl}amino)quinazolin-6-yl]prop-2-yn-1-yl}-3-oxo-2,3-dihydropyridazine-4-carboxamide]
19 | CCOC(=O)c1ccc(Nc2ncc3cc(C#CCNC(=O)c4cncn(Cc5ccc(F)c(F)c5)c4=O)ccc3n2)cc1 [III-39, ethyl-4-({6-[3-({[1-(3,4-difluorobenzyl)-6-oxo-1,6-dihydropyrimidin-5-yl]carbonyl}amino)prop-1-yn-1-yl]quinazolin-2-yl}amino)benzoate]
13.5 | Cc1c(C(=O)NCC#Cc2ccc3nc(Nc4ccc(N(C)C5CCN(C)CC5)cc4)ncc3c2)c(=O)n(Cc2ccc(F)c(F)c2)n1C [III-40, 2-(3,4-difluorobenzyl)-1,5-dimethyl-N-{3-[2-({4-[methyl(1-methylpiperidin-4-yl)amino]phenyl}amino)quinazolin-6-yl]prop-2-yn-1-yl}-3-oxo-2,3-dihydro-1H-pyrazole-4-carboxamide]
12.7 | CN1CCC(N(C)c2ccc(Nc3ncc4cc(C#CCNC(=O)c5cc(Cl)nn(Cc6ccc(F)c(F)c6)c5=O)ccc4n3)cc2)CC1 [III-41, 6-chloro-2(3,4-difluorobenzyl)-N-{3-[2-({4-[methyl(1-methylpiperidin-4-yl)amino]phenyl}amino)quinazolin-6-yl]prop-2-yn-1-yl}-3-oxo-2,3-dihydropyridazine-4-carboxamide]
14.7 | Nc1ncc2cc(C#CCNC(=O)c3cncn(Cc4ccc(F)c(F)c4)c3=O)ccc2n1 [III-42, N-[3-(2-aminoquinazolin-6-yl)prop-2-yn-1-yl]-1-(3,4-difluorobenzyl)-6-oxo-1,6-dihydropyrimidine-5-carboxamide]
20.3 | CNc1ncc2cc(C#CCNC(=O)c3cncn(Cc4ccc(F)c(F)c4)c3=O)ccc2n1 [III-43, 1-(3,4-difluorobenzyl)-N-{3-[2-(methylamino)quinazolin-6-yl]prop-2-yn-1-yl}-6-oxo-1,6-dihydropyrimidine-5-carboxamide]
